Each structure is given as a SMILES string. Read-outs that look alike come from different tables or passages of the source.

This is an account of results in US7232835B2, “3,6-Disubstituted azabicyclo derivatives as muscarinic receptor antagonists” (Ranbaxy Laboratories Limited, priority 2002, dated 2007).

For one assay, the target named is T1, M3 muscarinic receptor (Rattus norvegicus, UniProt P08483).
T1 construct: Submandibular glands and heart were isolated and placed in ice cold homogenising buffer; from tissue; host or cells: rat submandibular gland membrane homogenate
Kind of assay: [3H]-N-methylscopolamine radioligand binding assay, rat submandibular gland membranes. To be noted: rat submandibular gland, [3H]NMS.

In the next assay the target is T2, M2 muscarinic receptor (Rattus norvegicus, UniProt P10980).
T2 construct: Submandibular glands and heart were isolated and placed in ice cold homogenising buffer; from tissue; host or cells: rat heart membrane homogenate
T2 sequence (P10980 1-466): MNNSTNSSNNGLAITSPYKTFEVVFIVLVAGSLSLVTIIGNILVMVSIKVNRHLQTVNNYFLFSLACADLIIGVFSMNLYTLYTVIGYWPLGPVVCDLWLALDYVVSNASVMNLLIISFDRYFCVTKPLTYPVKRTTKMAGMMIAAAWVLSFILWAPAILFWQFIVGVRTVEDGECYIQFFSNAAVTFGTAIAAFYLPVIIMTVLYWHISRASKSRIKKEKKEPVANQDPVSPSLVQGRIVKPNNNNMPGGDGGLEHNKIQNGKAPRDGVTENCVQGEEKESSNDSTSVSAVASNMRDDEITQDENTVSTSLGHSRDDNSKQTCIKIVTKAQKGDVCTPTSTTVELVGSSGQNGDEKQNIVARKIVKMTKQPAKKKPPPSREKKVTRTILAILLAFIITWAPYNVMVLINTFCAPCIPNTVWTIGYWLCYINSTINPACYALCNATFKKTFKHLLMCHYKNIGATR
In words: [3H]-N-methylscopolamine radioligand binding assay, rat heart membranes.

In another assay the test system is isolated rat bladder. In words: tissue or blood. The assay is classed as cell-based.
[1] abbreviates: Table III, read-out: M3 Ki (nm).
Setting [2] is: Table III, rat heart, [3H]NMS, read-out: M2 Ki (nm).
[3] abbreviates: Table III, rat bladder strips, antagonism of carbachol contraction, read-out: Rat Bladder pKB (converted).
[4] abbreviates: Table IV, read-out: Receptor Binding Assay (pKi) M3 (converted).
Where [5] appears, read: Table IV, rat heart, [3H]NMS, read-out: Receptor Binding Assay (pKi) M2 (converted).

T1 sequence (P08483 whole entry): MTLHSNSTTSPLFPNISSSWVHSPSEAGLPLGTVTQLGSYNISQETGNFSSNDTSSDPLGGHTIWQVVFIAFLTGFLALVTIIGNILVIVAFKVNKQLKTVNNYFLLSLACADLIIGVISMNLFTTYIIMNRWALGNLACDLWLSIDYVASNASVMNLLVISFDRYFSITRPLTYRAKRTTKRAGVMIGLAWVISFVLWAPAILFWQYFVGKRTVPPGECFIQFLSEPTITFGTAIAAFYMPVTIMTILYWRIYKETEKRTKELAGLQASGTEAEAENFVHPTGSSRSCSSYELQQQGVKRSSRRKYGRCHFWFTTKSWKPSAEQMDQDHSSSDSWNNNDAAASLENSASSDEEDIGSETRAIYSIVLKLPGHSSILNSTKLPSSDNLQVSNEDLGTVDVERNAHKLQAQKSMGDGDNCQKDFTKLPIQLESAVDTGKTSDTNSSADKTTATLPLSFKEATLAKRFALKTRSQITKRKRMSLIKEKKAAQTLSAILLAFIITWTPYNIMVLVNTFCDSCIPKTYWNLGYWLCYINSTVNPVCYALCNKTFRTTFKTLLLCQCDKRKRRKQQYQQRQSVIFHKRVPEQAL

With `O=C(NC1C2CN(CCc3ccc4occc4c3)CC21)C(O)(c1ccccc1)C1CCCCC1` (stereo not drawn) [Compound No. 31, (1α,5α,6α)-6-N-(3-azabicyclo[3.1.0]hexyl-3-(2-(benzofuran-5-yl)ethyl))-2-cyclohexyl-2-hydroxy-2-phenyl acetamide], the Ki at M3 muscarinic receptor (setting [1]) came out at 0.233 µM; on M2 muscarinic receptor (setting [2]), 1.59 µM.
Take `O=C(NC1C2CN(Cc3ccccc3)CC21)C(O)(c1ccccc1)C1CCCCCC1` (stereo not drawn) [Compound No. 72, (1α,5α,6α)-6-N-(3-azabicyclo[3.1.0]hexyl-3-benzyl)-2-cycloheptyl-2-hydroxy-2-phenyl acetamide]: in the assay on isolated rat bladder (setting [3]), the Kb is 66.1 nM. The Ki is 0.0209 µM on M3 muscarinic receptor (Table III, read-out: M3 Pki (converted)) and 1.53 µM on M2 muscarinic receptor (M2 Ki (nm)).
Take `Cc1ccc(O)c([C@H](CCN(C(C)C)C(C)C)c2ccccc2)c1` [Tolterodine, tolterodine, reference compound]: the Kb was 2 nM in the assay on isolated rat bladder (Rattus norvegicus, read-out: Functional Assay KB (nM)) and 1e+07 nM in the assay on isolated rat bladder (Rattus norvegicus, read-out: Rat Bladder pKB (converted)).
Turning to `COc1ccc(C(O)(C(=O)NC2C3CNCC32)C2CCCCC2)cc1` (stereo not drawn) [Compound No. 87, (1α,5α,6α)-6-N-(3-azabicyclo-[3.1.0]hexyl)-2-cyclohexyl-2-hydroxy-2-(4-methyoxyphenyl)acetamide], the Ki on M3 muscarinic receptor (setting [4]) and at M2 muscarinic receptor (setting [5]) was > 1 µM throughout.
With `O=C(N[C@H]1[C@@H]2CN(CCc3ccc4c(c3)CCO4)C[C@@H]21)C(O)(c1ccccc1)C1CCCC1` (stereo partly drawn) [Compound No. 68, (1α,5α,6α)-6-N-(3-azabicyclo[3.1.0]hexyl-3-(2-(2,3-dihydrobenzofuran-5-yl)ethyl))-2-cyclopentyl-2-hydroxy-2-phenyl acetamide], the Ki is 0.108 µM on M3 muscarinic receptor (setting [1]) and > 1 µM on M2 muscarinic receptor (setting [2]).
On to `Cc1ccc(C(O)(C(=O)NC2C3CN(Cc4ccccc4)CC32)C2CCCCC2)cc1` (stereo not drawn) [Compound No. 50, (1α,5α,6α)-6-N-(3-azabicyclo[3.1.0]hexyl-3-benzyl)-2-cyclohexyl-2-hydroxy-2-(4-methylphenyl)acetamide], for which, in the assay on isolated rat bladder (setting [3]), the Kb was 138 nM. Moreover, the figures for the Ki at M3 muscarinic receptor (setting [1]) and on M2 muscarinic receptor (setting [2]) were 1.2 µM and > 1 µM, respectively.
The corresponding values for `O=C(NC1C2CN(Cc3ccc(Br)cc3)CC21)C(O)(c1ccccc1)C1CCCCC1` (stereo not drawn) [Compound No. 24, (1α,5α,6α)-6-N-(3-azabicyclo[3.1.0]hexyl-3-(4-bromobenzyl))-2-cyclohexyl-2-hydroxy-2-phenyl acetamide] are 3800 nM, 0.49 µM and > 1 µM.
Regarding `Cc1cccc(N2CC3C(C2)C3NC(=O)C(O)(c2ccccc2)C2CCCC2)n1` (stereo not drawn) [Compound No. 69], the “M3 Pki” value at M3 muscarinic receptor (Table III) worked out at 5.85. Further, the Ki at M3 muscarinic receptor (setting [1]) is 1.42 µM; on M2 muscarinic receptor (setting [2]) it was > 10 µM. Further, at M2 muscarinic receptor (Table III, rat heart, [3H]NMS), the “M2 pKi” value is given as <5.
Take `CC(C)(C)OC(=O)N(CCCCOC(=O)C(O)(c1ccc(F)cc1)c1ccc(F)cc1)C1C2CNCC21` (stereo not drawn) [Compound No. 95, (1α,5α,6α)-4-[6-N-(3-azabicyclo[3.1.0]hexyl)]-N-(tert-butyloxycarbonyl)butyl-1-[2-hydroxy-2,2-bis-(4-fluorophenyl)]acetate]: the Ki on M3 muscarinic receptor (setting [4]) and at M2 muscarinic receptor (setting [5]) was > 1 µM throughout.
Consider `O=C(NC1C2CN(CCc3ccc4c(c3)OCO4)CC21)C(O)(c1ccccc1)C1CCCCC1` (stereo not drawn) [Compound No. 29, (1α,5α,6α)-6-N-(3-azabicyclo[3.1.0]hexyl-3-(2-(3,4-methylenedioxyphenyl)ethyl))-2-cyclohexyl-2-hydroxy-2-phenyl acetamide], for which the values for the Ki on M3 muscarinic receptor (setting [1]) and on M2 muscarinic receptor (setting [2]) were 0.097 µM and > 1 µM, respectively.
For `O=C(N[C@H]1[C@@H]2CNC[C@@H]21)C(O)(c1ccccc1)C1CC1` (stereo partly drawn) [Compound No. 92, (1α,5α,6α)-6-N-(3-azabicyclo-[3.1.0]hexyl)-2-cyclopropyl-2-hydroxy-2-phenylacetamide], the Ki at M3 muscarinic receptor (setting [4]) and at M2 muscarinic receptor (setting [5]) was > 10 µM each time.
Regarding `O=C(NC1C2CNCC21)C(O)(c1ccc(F)cc1)C1CCCCC1` (stereo not drawn) [Compound No. 86, (1α,5α,6α)-6-N-(3-azabicyclo-[3.1.0]hexyl)-2-cyclohexyl-2-hydroxy-2-(4-Fluorophenyl)acetamide], the Ki at M3 muscarinic receptor (setting [4]) and on M2 muscarinic receptor (setting [5]) was > 1 µM throughout.
Take `O=C(N[C@H]1[C@@H]2CNC[C@@H]21)C(c1ccccc1)c1ccccc1` [Compound No. 97, (1α,5α,6α)-6N-(3-azabicyclo-[3.1.0]hexyl)-2,2-diphenyl acetamide]: the Ki on M3 muscarinic receptor (setting [4]) and on M2 muscarinic receptor (setting [5]) was > 1 µM each time.
Consider `O=C(NC1C2CNCC21)C(O)(c1ccccc1)C1CCCC1` (stereo not drawn) [Compound No. 89, (1α,5α,6α)-6-N-(3-azabicyclo-[3.1.0]hexyl)-2-cyclopentyl-2-hydroxy-2-phenylacetamide], for which the Ki on M3 muscarinic receptor (setting [4]) and on M2 muscarinic receptor (setting [5]) was > 1 µM in each case.
In the case of `CCN(CC)CC#CCOC(=O)C(O)(c1ccccc1)C1CCCCC1` (stereo not drawn) [Oxybutynin, oxybutynin, reference compound], the Kb in the assay with isolated rat bladder (Table II, rat bladder strips, antagonism of carbachol contraction, read-out: Functional Assay KB) is 2 nM.
`O=C(Cc1ccc2c(c1)CCO2)N1CC2C(C1)C2NC(=O)C(O)(c1ccccc1)C1CCCCC1` (stereo not drawn) [Compound No. 30, (1α,5α,6α)-6-N-(3-azabicyclo[3.1.0]hexyl-3-(1-(2,3-dihydrobenzofuran-5-yl)acetyl))-2-cyclohexyl-2-hydroxy-2-phenyl acetamide]: the “M3 Pki” value on M3 muscarinic receptor (Table III) is listed as 6.08. Further, the Ki on M3 muscarinic receptor (setting [1]) is 0.833 µM. In addition, the “M2 pKi” value on M2 muscarinic receptor (Table III, rat heart, [3H]NMS) is on record as <5.
As to `O=C(N[C@H]1[C@@H]2CNC[C@@H]21)C(O)(c1ccccc1)C1CCC1` (stereo partly drawn) [Compound No. 91, (1α,5α,6α)-6-N-(3-azabicyclo[3.1.0]hexyl)-2-cyclobutyl-2-hydroxy-2-phenylacetamide], the Ki is 2.75 µM at M3 muscarinic receptor (setting [4]) and 100 µM at M2 muscarinic receptor (setting [5]).
On to `O=C(NC1C2CN(CCc3ccc4c(c3)CCO4)CC21)C(O)(c1ccccc1)C1CCCCC1` (stereo not drawn) [Compound No. 28, (1α,5α,6α)-6-N-(3-azabicyclo[3.1.0]hexyl-3-(2-(2,3-dihydrobenzofuran-5-yl)ethyl))-2-cyclohexyl-2-hydroxy-2-phenyl acetamide], for which the Ki is 0.15 µM at M3 muscarinic receptor (setting [1]) and > 1 µM on M2 muscarinic receptor (setting [2]).
Turning to `COC(C(=O)NC1C2CNCC21)(c1ccccc1)C1CCCCC1` (stereo not drawn) [Compound No. 98, (1α,5α,6α)-6N-(3-azabicyclo-[3.1.0]hexyl)-2-cyclohexyl-2-methoxy-2-phenyl acetamide], the Ki on M3 muscarinic receptor (setting [4]) and at M2 muscarinic receptor (setting [5]) was > 1 µM each time.
Take `CC(C)(C)c1ccc(C(O)(C(=O)NC2C3CN(Cc4ccccc4)CC32)C2CCCCC2)cc1` (stereo not drawn) [Compound No. 55, (1α,5α,6α)-6-N-(3-azabicyclo[3.1.0]hexyl-3-benzyl)-2-cyclohexyl-2-hydroxy-2-(4-tertbutylphenyl)acetamide]: the Ki on M3 muscarinic receptor (setting [1]) is 0.38 µM; on M2 muscarinic receptor (setting [2]) it was > 1 µM.
Regarding `O=C(N[C@H]1[C@@H]2CNC[C@@H]21)C(O)(c1ccccc1)C1CCCCC1` (stereo partly drawn) [Compound No. 85, (1α,5α,6α)-6-N-(3-azabicyclo[3.1.0]hexyl)-2-cyclohexyl-2-hydroxy-2-phenylacetamide], the Ki at M3 muscarinic receptor (setting [4]) and on M2 muscarinic receptor (setting [5]) was > 1 µM each time.
Take `O=C(N[C@H]1[C@@H]2CNC[C@@H]21)C(O)(c1ccccc1)C1CCCCCC1` (stereo partly drawn) [Compound No. 90, (1α,5α,6α)-6-N-(3-azabicyclo[3.1.0]hexyl)-2-cycloheptyl-2-hydroxy-2-phenylacetamide]: the Ki at M3 muscarinic receptor (setting [4]) was 0.363 µM; at M2 muscarinic receptor (setting [5]), > 1 µM.
For the molecule `Cc1ccc(C(O)(C(=O)N[C@H]2[C@@H]3CNC[C@@H]32)C2CCCCC2)cc1` (stereo partly drawn) [Compound No. 88, (1α,5α,6α)-6-N-(3-azabicyclo-[3.1.0]hexyl)-2-cyclohexyl-2-hydroxy-2-(4-methylphenyl)acetamide], the Ki on M3 muscarinic receptor (setting [4]) and on M2 muscarinic receptor (setting [5]) was > 1 µM each time.
Take `O=C(Cc1ccc2c(c1)CCO2)N1CC2C(C1)C2NC(=O)C(O)(c1ccccc1)C1CCCC1` (stereo not drawn) [Compound No. 70, (1α,5α,6α)-6-N-(3-azabicyclo[3.1.0]hexyl-3-(1-(2,3-dihydrobenzofuran-5-yl)acetyl))-2-cyclopentyl-2-hydroxy-2-phenyl acetamide]: the “M3 Pki” value on M3 muscarinic receptor (Table III) is reported as 6.12. Also, the Ki at M3 muscarinic receptor (setting [1]) was 0.75 µM; at M2 muscarinic receptor (setting [2]), > 10 µM. Also, the “M2 pKi” value at M2 muscarinic receptor (Table III, rat heart, [3H]NMS) is on record as <5.
With `CCCOC(C(=O)OCCCCN(C(=O)OC(C)(C)C)C1C2CNCC21)(c1ccc(F)cc1)c1ccc(F)cc1` (stereo not drawn) [Compound No. 96, (1α,5α,6α)-4-[6-N-(3-azabicyclo-[3.1.0]hexyl)]-N-(tert-butyloxycarbonyl)butyl-1-[2-propyloxy-2,2-bis-(4-fluorophenyl)]acetate], the Ki on M3 muscarinic receptor (setting [4]) and at M2 muscarinic receptor (setting [5]) was > 1 µM in each case.
